In patent publication US20230086703A1, “N-(4-(5-chloropyridin-3-yl)phenyl)-2-(2-(cyclopropanesulfonamido)pyrimidin-4-yl) butanamide derivatives and related compounds as human CTPS1 inhibitors for the treatment of proliferative diseases” (Step Pharma S.A.S., priority 2019, published 2023):

Molecular target: T1, human CTPS1 (Homo sapiens, UniProt P17812)
T1 construct: FLAG (with GG linker); His8 (with GG linker); purchased Proteros biostructures GmbH
T1 sequence (P17812 1-591): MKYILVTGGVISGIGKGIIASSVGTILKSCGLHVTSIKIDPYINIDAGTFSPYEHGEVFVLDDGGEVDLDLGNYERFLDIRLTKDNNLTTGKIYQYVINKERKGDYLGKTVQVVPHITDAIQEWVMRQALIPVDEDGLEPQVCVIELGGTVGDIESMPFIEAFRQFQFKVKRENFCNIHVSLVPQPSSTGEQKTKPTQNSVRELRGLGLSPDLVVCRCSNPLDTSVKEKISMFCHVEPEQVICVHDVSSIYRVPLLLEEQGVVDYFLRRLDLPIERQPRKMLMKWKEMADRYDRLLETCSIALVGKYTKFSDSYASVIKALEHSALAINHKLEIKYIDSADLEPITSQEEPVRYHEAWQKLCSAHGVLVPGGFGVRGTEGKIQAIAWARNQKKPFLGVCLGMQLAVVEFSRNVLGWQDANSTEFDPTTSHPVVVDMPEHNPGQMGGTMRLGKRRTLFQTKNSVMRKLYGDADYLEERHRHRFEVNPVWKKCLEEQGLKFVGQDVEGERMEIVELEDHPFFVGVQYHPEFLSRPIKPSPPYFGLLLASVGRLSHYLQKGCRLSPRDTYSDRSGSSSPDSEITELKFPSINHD
Experiment: Human CTPS1 enzyme inhibition, ADP-Glo Max assay
Assay type: biochemical
Settings: ADP-Glo Max assay; Table 10; read-out: Human CTPS1 Enzyme Inhibition, IC50 grouped by potency range (CTPS1)
Summary of the method: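 Enzyme preincubated with compound for 10 min at 25 °C in 50 mM Tris pH 8.0, 10 mM MgCl2, 0.01% Tween-20, 2 mM L-cysteine. ATP-to-ADP conversion detected by ADP-Glo Max luminescence after 60 min depletion and 60 min development steps. Percentage inhibition calculated per concentration.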

Row | Compound | IC50 [nM]
1 | CC(C)(C(=O)Nc1ccc(-c2cncnc2)cn1)c1csc(NS(=O)(=O)C2CC2)n1 [T264, 2-(2-(cyclopropanesulfonamido)thiazol-4-yl)-2-methyl-N-(5-(pyrimidin-5-yl)pyridin-2-yl)propanamide] | 100 to 1000
2 | COc1cncc(-c2ccc(NC(=O)C(C)(C)c3csc(NS(=O)(=O)C4CC4)n3)cc2)n1 [T265, 2-(2-(cyclopropanesulfonamido)thiazol-4-yl)-N-(4-(6-methoxypyrazin-2-yl)phenyl)-2-methylpropanamide] | < 100
3 | Cc1cncc(-c2ccc(NC(=O)C(C)(C)c3csc(NS(=O)(=O)C4CC4)n3)cc2)n1 [T266, 2-(2-(cyclopropanesulfonamido)thiazol-4-yl)-2-methyl-N-(4-(6-methylpyrazin-2-yl)phenyl)propanamide] | < 100
4 | CC(C)(C(=O)Nc1ccc(-c2cncc(C(F)(F)F)n2)cc1)c1csc(NS(=O)(=O)C2CC2)n1 [T267, 2-(2-(cyclopropanesulfonamido)thiazol-4-yl)-2-methyl-N-(4-(6-(trifluoromethyl)pyrazin-2-yl)phenyl)propanamide] | < 100
5 | CC(C)(C(=O)Nc1ccc(-c2cccc(Cl)n2)cc1)c1csc(NS(=O)(=O)C2CC2)n1 [T268, N-(4-(6-chloropyridin-2-yl)phenyl)-2-(2-(cyclopropanesulfonamido)thiazol-4-yl)-2-methylpropanamide] | 100 to 1000
6 | COc1cccc(-c2ccc(NC(=O)C(C)(C)c3csc(NS(=O)(=O)C4CC4)n3)cc2)n1 [T269, 2-(2-(cyclopropanesulfonamido)thiazol-4-yl)-N-(4-(6-methoxypyridin-2-yl)phenyl)-2-methylpropanamide] | 100 to 1000
7 | CC(C)(C(=O)Nc1ccc(-c2cccc(C(F)(F)F)n2)cc1)c1csc(NS(=O)(=O)C2CC2)n1 [T270, 2-(2-(cyclopropanesulfonamido)thiazol-4-yl)-2-methyl-N-(4-(6-(trifluoromethyl)pyridin-2-yl)phenyl)propanamide] | 100 to 1000
8 | COc1ccnc(-c2ccc(NC(=O)C(C)(C)c3csc(NS(=O)(=O)C4CC4)n3)cc2)c1 [T271, 2-(2-(cyclopropanesulfonamido)thiazol-4-yl)-N-(4-(4-methoxypyridin-2-yl)phenyl)-2-methylpropanamide] | 1000 to 10000
9 | CC(C)Oc1cncc(-c2ccc(NC(=O)C(C)(C)c3csc(NS(=O)(=O)C4CC4)n3)cc2)n1 [T272, 2-(2-(cyclopropanesulfonamido)thiazol-4-yl)-N-(4-(6-isopropoxypyrazin-2-yl)phenyl)-2-methylpropanamide] | < 100
10 | CC(C)(C(=O)Nc1ccc(-c2cncc(OC3CC3)n2)cc1)c1csc(NS(=O)(=O)C2CC2)n1 [T273, 2-(2-(cyclopropanesulfonamido)thiazol-4-yl)-N-(4-(6-cyclopropoxypyrazin-2-yl)phenyl)-2-methylpropanamide] | < 100
11 | COc1cncc(-c2ccc(NC(=O)C(C)(C)c3csc(NS(=O)(=O)C4CC4)n3)c(F)c2)n1 [T275, 2-(2-(cyclopropanesulfonamido)thiazol-4-yl)-N-(2-fluoro-4-(6-methoxypyrazin-2-yl)phenyl)-2-methylpropanamide] | < 100
12 | Cc1ncc(Cl)nc1-c1ccc(NC(=O)C(C)(C)c2csc(NS(=O)(=O)C3CC3)n2)cc1 [T276, N-(4-(6-chloro-3-methylpyrazin-2-yl)phenyl)-2-(2-(cyclopropanesulfonamido)thiazol-4-yl)-2-methylpropanamide] | 100 to 1000
13 | CC(C)(C(=O)Nc1ccc(-c2cncc(N3CCCC3)n2)cc1)c1csc(NS(=O)(=O)C2CC2)n1 [T278, 2-(2-(cyclopropanesulfonamido)thiazol-4-yl)-2-methyl-N-(4-(6-(pyrrolidin-1-yl)pyrazin-2-yl)phenyl)propanamide] | < 100
14 | CN(C)CCOc1cncc(-c2ccc(NC(=O)C(C)(C)c3csc(NS(=O)(=O)C4CC4)n3)cc2)n1 [T279, 2-(2-(cyclopropanesulfonamido)thiazol-4-yl)-N-(4-(6-(2-(dimethylamino)ethoxy)pyrazin-2-yl)phenyl)-2-methylpropanamide] | 1000 to 10000
15 | Cc1nccnc1-c1ccc(NC(=O)C(C)(C)c2csc(NS(=O)(=O)C3CC3)n2)cc1 [T280, 2-(2-(cyclopropanesulfonamido)thiazol-4-yl)-2-methyl-N-(4-(3-methylpyrazin-2-yl)phenyl)propanamide] | 1000 to 10000
16 | CC(=O)Nc1cncc(-c2ccc(NC(=O)C(C)(C)c3csc(NS(=O)(=O)C4CC4)n3)cc2)n1 [T281, N-(4-(6-acetamidopyrazin-2-yl)phenyl)-2-(2-(cyclopropanesulfonamido)thiazol-4-yl)-2-methylpropanamide] | 100 to 1000

Row | Compound | IC50 [nM]
17 | Cc1ncc(-c2ccc(NC(=O)C(C)(C)c3csc(NS(=O)(=O)C4CC4)n3)cc2)nc1C [T282, 2-(2-(cyclopropanesulfonamido)thiazol-4-yl)-N-(4-(5,6-dimethylpyrazin-2-yl)phenyl)-2-methylpropanamide] | 100 to 1000
18 | CC(C)(C(=O)Nc1ccc(-c2cncc(CO)n2)cc1)c1csc(NS(=O)(=O)C2CC2)n1 [T283, 2-(2-(cyclopropanesulfonamido)thiazol-4-yl)-N-(4-(6-(hydroxymethyl)pyrazin-2-yl)phenyl)-2-methylpropanamide] | 100 to 1000
19 | Cc1cnc(C)c(-c2ccc(NC(=O)C(C)(C)c3csc(NS(=O)(=O)C4CC4)n3)cc2)n1 [T284, 2-(2-(cyclopropanesulfonamido)thiazol-4-yl)-N-(4-(3,6-dimethylpyrazin-2-yl)phenyl)-2-methylpropanamide] | 1000 to 10000
20 | COc1cncc(-c2ccc(NC(=O)C(C)(C)c3csc(NS(=O)(=O)C4CC4)n3)c(C)c2)c1 [T285, 2-(2-(cyclopropanesulfonamido)thiazol-4-yl)-N-(4-(5-methoxypyridin-3-yl)-2-methylphenyl)-2-methylpropanamide] | < 100
21 | Cc1cc(-c2cncc(C#N)c2)ccc1NC(=O)C(C)(C)c1csc(NS(=O)(=O)C2CC2)n1 [T286, N-(4-(5-cyanopyridin-3-yl)-2-methylphenyl)-2-(2-(cyclopropanesulfonamido)thiazol-4-yl)-2-methylpropanamide] | < 100
22 | Cc1cc(-c2cncc(F)c2)ccc1NC(=O)C(C)(C)c1csc(NS(=O)(=O)C2CC2)n1 [T287, 2-(2-(cyclopropanesulfonamido)thiazol-4-yl)-N-(4-(5-fluoropyridin-3-yl)-2-methylphenyl)-2-methylpropanamide] | < 100
23 | Cc1cc(NC(=O)C(C)(C)c2csc(NS(=O)(=O)C3CC3)n2)ccc1-c1cncc(Cl)c1 [T288, N-(4-(5-chloropyridin-3-yl)-3-methylphenyl)-2-(2-(cyclopropanesulfonamido)thiazol-4-yl)-2-methylpropanamide] | 100 to 1000
24 | CCOc1cc(NC(=O)C(C)(C)c2csc(NS(=O)(=O)C3CC3)n2)ccc1-c1cncc(C#N)c1 [T289, N-(4-(5-cyanopyridin-3-yl)-3-ethoxyphenyl)-2-(2-(cyclopropanesulfonamido)thiazol-4-yl)-2-methylpropanamide] | 100 to 1000
25 | CCOc1cncc(-c2ccc(NC(=O)C(C)(C)c3csc(NS(=O)(=O)C4CC4)n3)cc2)c1 [T290, 2-(2-(cyclopropanesulfonamido)thiazol-4-yl)-N-(4-(5-ethoxypyridin-3-yl)phenyl)-2-methylpropanamide] | < 100
26 | COc1cncc(-c2cnc(NC(=O)C(C)(C)c3csc(NS(=O)(=O)C4CC4)n3)nc2)c1 [T292, 2-(2-(cyclopropanesulfonamido)thiazol-4-yl)-N-(5-(5-methoxypyridin-3-yl)pyrimidin-2-yl)-2-methylpropanamide] | 100 to 1000
27 | CC(C)(C(=O)Nc1ncc(-c2cncc(F)c2)cn1)c1csc(NS(=O)(=O)C2CC2)n1 [T293, 2-(2-(cyclopropanesulfonamido)thiazol-4-yl)-N-(5-(5-fluoropyridin-3-yl)pyrimidin-2-yl)-2-methylpropanamide] | 100 to 1000
28 | CC(C)(C(=O)Nc1ncc(-c2cncc(C(F)(F)F)c2)cn1)c1csc(NS(=O)(=O)C2CC2)n1 [T294, 2-(2-(cyclopropanesulfonamido)thiazol-4-yl)-2-methyl-N-(5-(5-(trifluoromethyl)pyridin-3-yl)pyrimidin-2-yl)propanamide] | 100 to 1000
29 | CCOc1cncc(-c2ccc(NC(=O)C(C)(C)c3csc(NS(=O)(=O)CC(C)C)n3)nc2)n1 [T295, N-(5-(6-ethoxypyrazin-2-yl)pyridin-2-yl)-2-methyl-2-(2-((2-methylpropyl)sulfonamido)thiazol-4-yl)propanamide] | 100 to 1000
30 | CCOc1cncc(-c2ccc(NC(=O)C(C)(C)c3csc(NS(=O)(=O)C(F)(F)F)n3)cc2)n1 [T296, N-(4-(6-ethoxypyrazin-2-yl)phenyl)-2-methyl-2-(2-((trifluoromethyl)sulfonamido)thiazol-4-yl)propanamide] | 100 to 1000
31 | CC(C)S(=O)(=O)Nc1nc(C(C)(C)C(=O)Nc2ccc(-c3cccnc3)cc2)cs1 [T297, 2-methyl-2-(2-((1-methylethyl)sulfonamido)thiazol-4-yl)-N-(4-(pyridin-3-yl)phenyl)propanamide] | 1000 to 10000
